Columns and labels:
Assay type in all cases: ADME, organism-based
[1] = Compound was evaluated for plasma clearance in rat; settings: read-out: Clp
[2] = Oral bioavailability in rat; settings: in vivo
[3] = Compound was evaluated for volume of distribution in rat; settings: in vivo
[4] = Compound was evaluated for plasma half life in rat

| clearance [1] [mL/min/kg] | bioavailability [2] [%] | Vd [3] [L/kg] | half-life [4] [h] | Structure (SMILES) |
| --- | --- | --- | --- | --- |
| 0.12 | 26 | 0.16 | 14.8 | CCCCc1nn(CCCC)c(C(=O)O)c1Cc1ccc(-c2ccccc2-c2nn[nH]n2)cc1 |
| 0.2 | 58 | 0.2 | 12.3 | CCCCc1nn(CC2CC2)c(C(=O)O)c1Cc1ccc(-c2ccccc2-c2nn[nH]n2)cc1 |
